According to patent US20200164023A1, “METHODS FOR PREVENTING AND TREATING INTRA-ABDOMINAL CANDIDIASIS” (Cidara Therapeutics, Inc., priority 2017, published 2020):
Values after ≈ are worked out from the molar mass of the structure shown. Numbered stars: 1 amine (or outer) side, 2 acyl side, 3 side chain; on linkers, the order of the positions; unused ones are H or OH. Bridge positions count the residues as written; N and C are the ends. Square brackets hold non-standard residues; d marks the D form. Peptide text beside a SMILES is read from it. * marks the point of attachment. hTyr(3S-OH,4S-OH,3'-OSO3H) = N[C@H](C(=O)O)[C@H](O)[C@@H](O)c1ccc(O)c(OS(=O)(=O)O)c1; pTerphenylCO(4''-OnC5H11) = CCCCCOc1ccc(-c2ccc(-c3ccc(C(=O)*)cc3)cc2)cc1; Orn(4R-OH,5R-OH) = O=C([C@H](C[C@@H](O)[C@@H](O)N[*:3])N[*:1])[*:2]; hTyr(3S-OH,4S-OH) = N[C@H](C(=O)O)[C@H](O)[C@@H](O)c1ccc(O)cc1; Pro(3S-OH,4S-Me) = C[C@H]1CN[C@H](C(=O)O)[C@H]1O; X1 = CCCCCOc1ccc(-c2cc(-c3ccc(C(=O)*)cc3)no2)cc1; Gln(3R-OH) = NC(=O)C[C@@H](O)[C@H](N)C(=O)O; Hyp = O=C(O)[C@@H]1C[C@@H](O)CN1

How the values were obtained:
[1] = system: C. glabrata isolates; experiment: Susceptibility profiles of C. glabrata clinical isolates; type: cell-based
Excerpt: 168 C. glabrata isolates are collected from blood or other sterile sites in our repository. 11 clinical isolates are selected that display various susceptibility profiles against anidulafungin, caspofungin, and micafungin, and/or harbor mutant or wild-type FKS genes (Table 1). Additionally, 29 isolates are picked that are susceptible to all three echinocandins and harbor wild-type FKS genes. These 40 clinical isolates undergo CD101 susceptibility testing according to the CLSI broth microdilution reference methods. Stock solutions are prepared in DMSO. […] MICs are determined visually after 24-h of incubation. C. krusei ATCC 6258 and C. parapsilosis ATCC 22019 are included for quality controls.

[2] = MALDI-MSI drug distribution in infected liver, mouse model of intra-abdominal candidiasis; type: in vivo; conditions: single dose 5 mg/kg
Protocol: (§1) A mouse model of IAC was used for this study. Female six to eight week old CD1 mice (Charles River Laboratories) weighing 18-22 g were infected intraperitoneally (IP) with 1×10^7 CFU of C. albicans SC5314 mixed with sterile stool matrix as previously described. […] Mice were sacrificed just before antifungal treatment (n=1), and at 1, 3, 6, 24, and 48 hours post-dose (three mice per group per time point). Livers and kidneys were explored for abscesses >1 mm in diameter, dissected, placed on a cryohistology tray, and snap-frozen in liquid nitrogen and stored at −80° C. for tissue sectioning for MALDI imaging.
(§2) In a further experiment, a low dose of CD101 at 5 mg/kg was administered and micafungin was given at the same dose. Liver and kidney samples were collected at 6 hours and 24 hours post-dose for both MALDI imaging and absolute drug quantification.
(§3) In another separate experiment that aimed at comparing therapeutic level of single dose CD101 and multiple doses of micafungin, a single dose of CD101 at 20 mg/kg was given at day three post-inoculation, and once daily treatment of micafungin at 5 mg/kg starting from day three post-inoculation and a total of three doses of micafungin was administered. Livers and kidneys were collected at 48 hours and 72 hours post first dose of each drug.
Tissues were sectioned at 12 μm thickness using a Leica CM1850 cryostat (Buffalo Grove, Ill.) and mounted onto stainless steel slides (for MALDI-MSI analysis) or frosted glass microscope slides (for H&E staining). Tissue sections were stored at −80° C. until analysis. Prior to MALDI-MSI analysis, tissue sections were thawed and applied with ionization matrix. For CD101, 2,5-dihydroxybenzoic acid (DHB) (20 mg/ml in 50% methanol) containing 267 fmol/μl CD101-D9 (Cidara Therapeutics, Inc) was applied to the surface using a HTX TM sprayer (Chapel Hill, N.C.) operating with 50 μL/min flow rate, 60° C. nozzle temperature and 5 p.s.i. Twenty-five passes over the tissue were performed. For micafungin, 1,5-diaminonaphthalene (1,5-DAN) matrix (5 mg/ml in 50% acetone) containing 5 nmol/μl ^13C6-micafungin (Alsachim, France) was coated onto tissue surface by the TM-sprayer at flow rate of 60 μl/min, 50° C. nozzle temperature and 5 p.s.i. […]
MALDI-MSI analysis was performed using a MALDI LTQ Orbitrap XL mass spectrometer (Thermo Fisher Scientific, Bremen, Germany) with a resolution of 60,000 at m/z 400, full width at half maximum. […] Standards of CD101 and micafungin were analyzed both direct from the stainless steel target plate and spiked into drug-naïve liver tissue to optimize instrument parameters. Limit of detection (LOD) for MALDI-MSI analysis of micafungin and CD101 was 500 ng/g and 1 μg/g of liver or kidney tissue respectively, calculated as described. […]

[3] = Laser-capture microdissection and LC/MS-MS drug quantification in liver lesions and surrounding tissue, mouse IAC model; type: in vivo; conditions: for concentration at 24 h / concentration at 6 h: female, CD1, mouse, in vivo, 5 mg/kg; for concentration at 6 h: 6 hours post-dose
Protocol: as §1, §2, §3
Laser-capture microdissection. Necrotic lesion and surrounding tissue areas totaling two to […] were dissected from between three and six serial liver or kidney biopsy tissue sections using a Leica LMD6500 system (Buffalo Grove, Ill.). Lesion areas were identified optically from the brightfield image scan and by comparison to the adjacently-sectioned H&E reference tissue. Pooled dissected lesion tissues were collected into 0.25 ml standard PCR tubes and immediately transferred to the −80° C. freezer for storage.
Prior to analysis, the tubes were thawed at room temperature for 30 minutes. 50 μl of extraction solution (ACN/MeOH (1/1) with 100 ng/ml CD101-D9 and 100 ng/ml ^13C6-micafungin) was added to each tube, which were then sonicated for five min and centrifuged at 10000 RPM for five min at room temperature. 40 μl of supernatant was transferred for LC/MS-MS analysis and diluted with an additional 40 μl of MilliQ water.
Neat 1 mg/ml DMSO stocks for all compounds were serial diluted in 50/50 acetonitrile water to create standard curves and quality control spiking solutions. 3 μl of neat spiking solutions were added to 2 μl of lesion homogenate and extraction was performed by adding 50 μl of extraction solution (ACN/MeOH (1/1) with 100 ng/ml CD101-D9 and 100 ng/ml ^13C6-micafungin). Extracts were vortexed for five minutes and centrifuged at 10000 RPM for five min. A 40 μl of supernatant was transferred for LC/MS-MS analysis and diluted with an additional 40 μl of MilliQ water. Previously optimized LC/MS-MS parameters were used for analysis (see LC/MS-MS section).
LC-MS analysis was performed on a Q Exactive high resolution mass spectrometer (Thermo Fisher Scientific, Waltham, Mass.) coupled to a Thermo Scientific Dionex UltiMate 3000 binary system. Chromatography was performed with a Kinetex C18 column (2.1×50 mm; particle size 1.7 μm, Phenomenex, Torrance, Calif.) using a reverse phase gradient elution, ACN:H2O (60:40) and 10 mM ammonium acetate for mobile phase A and IPA:ACN:MeOH (80:10:10) and 10 mM ammonium acetate for mobile phase B. A flow rate of 300 μl/min was used, with a gradient consisting of 20% B held for 0.5 min, followed by linear increase to 95% in 3.5 min, held for 2.2 min and return to the initial 20% B in 0.3 min. The column was equilibrated for 1.5 min before the next injection, and the temperature of column and sample tray were held at 50 and 4° C., respectively. The column retention time for CD101 and micafungin was 3.32 min and 3.2 min respectively.
Key MS parameters were as follow: the spray voltage, 3.5 kV; capillary temperature, 320° C.; HESI probe temperature, 400° C.; S-lens RF level, 50. […]

[4] = Serum drug levels after single dose in mice; type: in vivo; conditions: mouse, single dose 5 mg/kg, read-out: serum drug level
[5] = system: C. albicans; experiment: Minimum inhibitory concentration (MIC), IAC study strain; type: cell-based; conditions: Candida albicans
Protocol: As used herein, the term “minimum inhibitory concentration” or “MIC” refers to the concentration of an antifungal agent at which 50% to 100% growth inhibition of a fungus is achieved relative to a positive growth control. The method of establishing MIC will vary depending on the specific compound tested. For example, for echinocandins (e.g., CD101), MIC endpoints are determined after 24 hours incubation and correspond with the lowest drug concentration to produce a prominent decrease in turbidity (e.g., an approximately 50% reduction in growth relative to the drug-free growth control). For additional methods of determining the MIC of antifungal agents, see CLSI—Reference method for broth dilution antifungal susceptibility testing of yeasts; Approved-standard—Third Edition. CLSI document M27-A3. Wayne, Pa.: Clinical and Laboratory Standards Institute, 2008.

[6] = system: C. glabrata BG2; experiment: MIC against C. glabrata BG2; type: cell-based; conditions: Nakaseomyces glabratus; C. glabrata BG2, wild-type FKS genes
[7] = system: wildtype strains of C. albicans; conditions: cited from earlier work
[8] = system: wildtype strains of C. glabrata; conditions: cited from earlier work

| SMILES | susceptibility profile, value ([1]; Isolate 1, FKS R653I) | susceptibility profile, value ([1]; Isolate 2, FKS Wild-type) | susceptibility profile, value ([1]; Isolate 3, FKS F659L) | susceptibility profile, value ([1]; Isolate 4, FKS F659S) | susceptibility profile, value ([1]; Isolate 5, FKS R636S) | susceptibility profile, value ([1]; Isolate 6, FKS F659del) | susceptibility profile, value ([1]; Isolate 7, FKS S663P) | susceptibility profile, value ([1]; Isolate 8, FKS S663P) | susceptibility profile, value ([1]; Isolate 9, FKS D632Y) | susceptibility profile, value ([1]; Isolate 10, FKS D632Y) | susceptibility profile, value ([1]; Isolate 11, FKS F659del) | further results |
| --- | --- | --- | --- | --- | --- | --- | --- | --- | --- | --- | --- | --- |
| CC[C@H](C)C[C@H](C)CCCCCCCCC(=O)N[C@H]1C[C@@H](O)[C@@H](NCCN)NC(=O)[C@@H]2[C@@H](O)CCN2C(=O)[C@H]([C@H](O)CCN)NC(=O)[C@H]([C@H](O)[C@@H](O)c2ccc(O)cc2)NC(=O)[C@@H]2C[C@@H](O)CN2C(=O)[C@H]([C@@H](C)O)NC1=O [Caspofungin, caspofungin] | 0.125 | 0.25 | 1 | 1 | 4 | 8 | 8 | 0.5 | 2 | 2 | 16 |  |
| CCCCCOc1ccc(-c2cc(-c3ccc(C(=O)N[C@H]4C[C@@H](O)[C@@H](O)NC(=O)[C@@H]5[C@@H](O)[C@@H](C)CN5C(=O)[C@H]([C@H](O)CC(N)=O)NC(=O)[C@H]([C@H](O)[C@@H](O)c5ccc(O)c(OS(=O)(=O)O)c5)NC(=O)[C@@H]5C[C@@H](O)CN5C(=O)[C@H]([C@@H](C)O)NC4=O)cc3)no2)cc1 [micafungin] (X1-[Orn(4R-OH,5R-OH)]T[Hyp][hTyr(3S-OH,4S-OH,3'-OSO3H)][Gln(3R-OH)][Pro(3S-OH,4S-Me)]; lactam 1-C) | 0.015 | 0.03 | 0.06 | 0.06 | 0.12 | 4 | 8 | 0.5 | 0.25 | 0.25 | 4 | time of peak drug intensity in liver tissues (MALDI-MSI) [2]: 1 h; drug signal in liver at 48 hours (MALDI-MSI) ([2]; no further dosing): no drug signals were detected; drug exposure within necrotic center of lesion (MALDI-MSI) ([2]; 24 hours): no detectable drug exposure; time at which drug signal first detectable in lesions (at lesion edge, MALDI-MSI) ([2]; liver): 6 h; drug level in liver lesions ([3]; 5 mg/kg once daily, 24 hours post third dose (steady-state)): under 5 μg/ml; concentration at 24 h ([3]; 5 mg/kg once daily, 24 hours post second dose, read-out: drug level in liver lesions): 3500 ng/mL; concentration at 24 h ([3]; 5 mg/kg once daily, 24 hours post third dose (steady-state), read-out: drug level in liver lesions): 4900 ng/mL; concentration at 24 h ([3]; 5 mg/kg once daily, steady-state after three doses, read-out: drug level in surrounding non-lesion liver tissues): 500 ng/mL; concentration at 6 h ([3]; ip, single IP dose 5 mg/kg, read-out: drug concentration in liver lesions): 4900 ng/mL; concentration at 6 h ([3]; ip, single IP dose 5 mg/kg, read-out: drug concentration in uninvolved surrounding liver tissue): 6500 ng/mL; concentration at 24 h ([3]; ip, single IP dose 5 mg/kg, 24 hours post-dose, read-out: drug concentration in liver lesions): 3400 ng/mL; concentration at 24 h ([3]; ip, single IP dose 5 mg/kg, 24 hours post-dose, read-out: drug concentration in uninvolved surrounding liver tissue): 1000 ng/mL; concentration at 6 h ([4]; 6 hours): 7000 to 10000 ng/mL; concentration at 24 h ([4]; 24 hours): ~2000 ng/mL; MIC [5]: 0.03 µg/mL (≈ 0.0236 µM); MIC [6]: 0.06 µg/mL (≈ 0.0472 µM); mutant prevention concentration (MPC) [7]: 16 µg/mL; mutant prevention concentration (MPC) [8]: 16 µg/mL |
| CCCCCOc1ccc(-c2ccc(-c3ccc(C(=O)N[C@H]4C[C@@H](O)[C@@H](O)NC(=O)[C@@H]5[C@@H](O)[C@@H](C)CN5C(=O)[C@H]([C@@H](C)O)NC(=O)[C@H]([C@H](O)[C@@H](O)c5ccc(O)cc5)NC(=O)[C@@H]5C[C@@H](O)CN5C(=O)[C@H]([C@@H](C)O)NC4=O)cc3)cc2)cc1 [Anidulafungin, anidulafungin] ({pTerphenylCO(4''-OnC5H11)}-[Orn(4R-OH,5R-OH)]T[Hyp][hTyr(3S-OH,4S-OH)]T[Pro(3S-OH,4S-Me)]; lactam 1-C) | 0.015 | 0.015 | 0.06 | 0.5 | 0.5 | 2 | 2 | 0.5 | 0.5 | 1 | 2 |  |
